In patent US20230372313A1, “METHODS FOR REDUCING GLYCOSPHINGOLIPID CONCENTRATION IN BRAIN TISSUE AND METHODS OF TREATMENT OF NEURODEGENERATIVE DISEASES INVOLVING THE SAME” (GENZYME CORPORATION, priority 2020, published 2023):
Read-outs that look alike come from different tables or passages of the source.

Assay: Plasma pharmacokinetics of Compound 2 in PD participants (LC-MS/MS)
Type: in vivo, human
Description: Participants were randomised to 3 doses of once-daily orally administered Compound 2 or placebo, in sequential cohort design, and were followed up to 36 weeks (52 weeks for Japanese participants). Participants in the low-dose group received 4 mg of Compound 2 as a once daily oral dose; participants in the mid-dose group received 8 mg of Compound 2 a once daily oral dose; and participants in the high-dose group received 15 mg of Compound 2 a once daily oral dose.
Analyses were based on all available data from participants who enrolled in part 1 of the trial and were randomised to receive either Compound 2 or placebo for up to 52 weeks for Japanese participants and 36 weeks for the ROW population. As part 1 was an exploratory, dose-escalation study, the sample size was not based on a statistical power calculation. Participants included in the primary safety analyses were those who were randomized and received at least one dose of Compound 2 or placebo. A data monitoring committee was responsible for overseeing the safety of patients and the risk/benefit ratio throughout the study. Duration of exposure to Compound 2 was different among the doses, as per the sequential cohort design, with the low- and high-dose cohorts commencing the study first and last, respectively. For pharmacokinetics, plasma parameters were calculated using noncompartmental methods, from plasma Compound 2 concentrations obtained after single dose administration. AUC0-24 and AUC0-48 were calculated using the trapezoidal method over a predefined time period of 24 hours or 48 hours, respectively. CLss/F was calculated using the following equation: CLss/F=Dose/AUCτ, where τ is the dosing interval. For pharmacodynamics, percent reduction of plasma or CSF GL-1 from baseline was calculated as (value−baseline)/baseline×100. Formal statistical testing was not conducted on MDS-UPDRS scale assessments.
The secondary outcome was to evaluate the pharmacokinetic profile of Compound 2 in plasma and cerebrospinal fluid (CSF) over a 4-week period. Plasma pharmacokinetic parameters included maximum plasma concentration (Cmax), time to Cmax (tmax), and area under the plasma concentration versus time curve from 0 to 24 h (AUC0-24). All parameters were assessed at Week 0 and Week 4 after treatment. In addition, AUC0-48 was assessed at Week 0, trough plasma concentration observed just before treatment administration during repeated dosing (Ctrough) was assessed at Weeks 2, 4, and 8 (FIG. 3), and total systemic clearance from plasma at steady state (CLSS/F) was assessed at Week 4. Plasma samples were collected at 1 hour pre-dose and 1, 2, 4, 8, 24, and 48 hours postdose. Compound 2 concentration in plasma was determined using a liquid chromatography tandem mass spectrometry method with a lower limit of quantification of 0.500 ng/mL. CSF samples were collected by lumbar puncture during the screening period (within 14 days prior to randomisation) or on the day of randomisation, and at Week 4, within 2 to 4 hours postdose. Compound 2 concentration in CSF was determined using a liquid chromatography tandem mass spectrometry method with a lower limit of quantification of 0.100 ng/mL.

For CC(C)(NC(=O)O[C@@H]1CN2CCC1CC2)c1csc(-c2ccc(F)cc2)n1 [Compound 2, (S)-quinuclidin-3-yl (2-(2-(4-fluorophenyl)thiazol-4-yl)propan-2-yl)carbamate], the “increase of Compound 2 concentration in plasma with dose” value (Japanese and ROW cohorts, 4, 8, 15 mg) was “close to dose-proportional manner”, the Tmax (human, plasma, oral, plasma, Week 4, Japanese participants, across all doses tested, read-out: median tmax values) was 2.1 to 4.33 h and the Tmax (human, plasma, oral, plasma, Week 4, ROW participants, across all doses tested, read-out: median tmax values) was 1.96 to 3.55 h. The Cmax at 4 weeks (human, plasma, po, 4 mg, Week 4, Japan, Low 4 mg once daily oral, n = 3) was 56.3 ng/mL, the AUC(0-t) (human, plasma, po, 4 mg, plasma, Day 1, Japan, Low 4 mg oral, n = 3, read-out: AUC0-24, Geometric mean) was 390 ng·h/mL and the AUC(0-t) (human, plasma, po, 4 mg, plasma, Day 1, Japan, Low 4 mg oral, n = 3, read-out: AUC0-24, mean) was 393 ng·h/mL. The AUC(0-t) (human, plasma, po, 4 mg, plasma, Day 1, Japan, Low 4 mg oral, n = 3, read-out: AUC0-48, Geometric mean) was 660 ng·h/mL, the AUC(0-t) (human, plasma, po, 4 mg, plasma, Day 1, Japan, Low 4 mg oral, n = 3, read-out: AUC0-48, mean) was 661 ng·h/mL and the Cmax (human, plasma, po, 4 mg, plasma, Day 1, Japan, Low 4 mg oral, n = 3, read-out: Cmax, Geometric mean) was 21.7 ng/mL. For the same molecule, the Cmax (human, plasma, po, 4 mg, plasma, Day 1, Japan, Low 4 mg oral, n = 3, read-out: Cmax, mean) was 21.8 ng/mL, the Tmax (human, plasma, po, 4 mg, plasma, Day 1, Japan, Low 4 mg oral, n = 3, read-out: tmax, median) was 4.33 h and the AUC(0-t) (human, plasma, po, 4 mg, plasma, Day 1, ROW, Low 4 mg oral, n = 4, read-out: AUC0-24, Geometric mean) was 249 ng·h/mL. For the same molecule, the AUC(0-t) (human, plasma, po, 4 mg, plasma, Day 1, ROW, Low 4 mg oral, n = 4, read-out: AUC0-24, mean) was 255 ng·h/mL, the AUC(0-t) (human, plasma, po, 4 mg, plasma, Day 1, ROW, Low 4 mg oral, n = 4, read-out: AUC0-48, Geometric mean) was 419 ng·h/mL and the AUC(0-t) (human, plasma, po, 4 mg, plasma, Day 1, ROW, Low 4 mg oral, n = 4, read-out: AUC0-48, mean) was 431 ng·h/mL. The Cmax (human, plasma, po, 4 mg, plasma, Day 1, ROW, Low 4 mg oral, n = 4, read-out: Cmax, Geometric mean) was 13.6 ng/mL, the Cmax (human, plasma, po, 4 mg, plasma, Day 1, ROW, Low 4 mg oral, n = 4, read-out: Cmax, mean) was 13.8 ng/mL and the Tmax (human, plasma, po, 4 mg, plasma, Day 1, ROW, Low 4 mg oral, n = 4, read-out: tmax, median) was 4.07 h. For the same molecule, the AUC(0-t) (human, plasma, po, 4 mg, plasma, Week 4, Japan, Low 4 mg once daily oral, n = 1, read-out: AUC0-24, Geometric mean) was 1130 ng·h/mL, the AUC(0-t) (human, plasma, po, 4 mg, plasma, Week 4, Japan, Low 4 mg once daily oral, n = 1, read-out: AUC0-24, mean) was 1130 ng·h/mL and the Cmax (human, plasma, po, 4 mg, plasma, Week 4, Japan, Low 4 mg once daily oral, n = 3, read-out: Cmax, Geometric mean) was 56.2 ng/mL. For the same molecule, the Tmax (human, plasma, po, 4 mg, plasma, Week 4, Japan, Low 4 mg once daily oral, n = 3, read-out: tmax, median) was 4.33 h, the AUC(0-t) (human, plasma, po, 4 mg, plasma, Week 4, ROW, Low 4 mg once daily oral, n = 4, read-out: AUC0-24, Geometric mean) was 763 ng·h/mL and the AUC(0-t) (human, plasma, po, 4 mg, plasma, Week 4, ROW, Low 4 mg once daily oral, n = 4, read-out: AUC0-24, mean) was 766 ng·h/mL. It also gave a Cmax (human, plasma, po, 4 mg, plasma, Week 4, ROW, Low 4 mg once daily oral, n = 4, read-out: Cmax, Geometric mean) of 41 ng/mL, a Cmax (human, plasma, po, 4 mg, plasma, Week 4, ROW, Low 4 mg once daily oral, n = 4, read-out: Cmax, mean) of 41.6 ng/mL and a Tmax (human, plasma, po, 4 mg, plasma, Week 4, ROW, Low 4 mg once daily oral, n = 4, read-out: tmax, median) of 1.96 h. It also gave an AUC(0-t) (human, plasma, po, 8 mg, plasma, Day 1, Japan, Mid 8 mg oral, n = 3, read-out: AUC0-24, Geometric mean) of 596 ng·h/mL, an AUC(0-t) (human, plasma, po, 8 mg, plasma, Day 1, Japan, Mid 8 mg oral, n = 3, read-out: AUC0-24, mean) of 623 ng·h/mL and an AUC(0-t) (human, plasma, po, 8 mg, plasma, Day 1, Japan, Mid 8 mg oral, n = 3, read-out: AUC0-48, Geometric mean) of 1070 ng·h/mL. It also gave an AUC(0-t) (human, plasma, po, 8 mg, plasma, Day 1, Japan, Mid 8 mg oral, n = 3, read-out: AUC0-48, mean) of 1130 ng·h/mL, a Cmax (human, plasma, po, 8 mg, plasma, Day 1, Japan, Mid 8 mg oral, n = 3, read-out: Cmax, Geometric mean) of 29.9 ng/mL and a Cmax (human, plasma, po, 8 mg, plasma, Day 1, Japan, Mid 8 mg oral, n = 3, read-out: Cmax, mean) of 31.3 ng/mL. For the same molecule, the Tmax (human, plasma, po, 8 mg, plasma, Day 1, Japan, Mid 8 mg oral, n = 3, read-out: tmax, median) was 4.02 h, the AUC(0-t) (human, plasma, po, 8 mg, plasma, Day 1, ROW, Mid 8 mg oral, n = 5, read-out: AUC0-24, Geometric mean) was 422 ng·h/mL and the AUC(0-t) (human, plasma, po, 8 mg, plasma, Day 1, ROW, Mid 8 mg oral, n = 5, read-out: AUC0-24, mean) was 457 ng·h/mL. The AUC(0-t) (human, plasma, po, 8 mg, plasma, Day 1, ROW, Mid 8 mg oral, n = 5, read-out: AUC0-48, Geometric mean) was 735 ng·h/mL, the AUC(0-t) (human, plasma, po, 8 mg, plasma, Day 1, ROW, Mid 8 mg oral, n = 5, read-out: AUC0-48, mean) was 776 ng·h/mL and the Cmax (human, plasma, po, 8 mg, plasma, Day 1, ROW, Mid 8 mg oral, n = 5, read-out: Cmax, Geometric mean) was 23.8 ng/mL. It also gave a Cmax (human, plasma, po, 8 mg, plasma, Day 1, ROW, Mid 8 mg oral, n = 5, read-out: Cmax, mean) of 26.3 ng/mL, a Tmax (human, plasma, po, 8 mg, plasma, Day 1, ROW, Mid 8 mg oral, n = 5, read-out: tmax, median) of 4.17 h and an AUC(0-t) (human, plasma, po, 8 mg, plasma, Week 4, Japan, Mid 8 mg once daily oral, n = 3, read-out: AUC0-24, Geometric mean) of 1620 ng·h/mL. The AUC(0-t) (human, plasma, po, 8 mg, plasma, Week 4, Japan, Mid 8 mg once daily oral, n = 3, read-out: AUC0-24, mean) was 1650 ng·h/mL, the Cmax (human, plasma, po, 8 mg, plasma, Week 4, Japan, Mid 8 mg once daily oral, n = 3, read-out: Cmax, Geometric mean) was 82.8 ng/mL and the Tmax (human, plasma, po, 8 mg, plasma, Week 4, Japan, Mid 8 mg once daily oral, n = 3, read-out: tmax, median) was 2.12 h. The AUC(0-t) (human, plasma, po, 8 mg, plasma, Week 4, ROW, Mid 8 mg once daily oral, n = 5, read-out: AUC0-24, Geometric mean) was 1490 ng·h/mL, the AUC(0-t) (human, plasma, po, 8 mg, plasma, Week 4, ROW, Mid 8 mg once daily oral, n = 5, read-out: AUC0-24, mean) was 1510 ng·h/mL and the Cmax (human, plasma, po, 8 mg, plasma, Week 4, ROW, Mid 8 mg once daily oral, n = 5, read-out: Cmax, Geometric mean) was 75.8 ng/mL. It also gave a Cmax (human, plasma, po, 8 mg, plasma, Week 4, ROW, Mid 8 mg once daily oral, n = 5, read-out: Cmax, mean) of 77.8 ng/mL and a Tmax (human, plasma, po, 8 mg, plasma, Week 4, ROW, Mid 8 mg once daily oral, n = 5, read-out: tmax, median) of 3.55 h.
